Measurements: patent US6020345A, “Pyridin-2-yl-methylamine derivatives, method of preparing and application as medicine” (Pierre Fabre Medicament, priority 1996, dated 2000)
Read-outs that look alike come from different tables or passages of the source.

Key:
[1] = target: T1, 5-HT1A receptors (Rattus norvegicus, UniProt P19327); assay: In vitro affinity for the 5-HT1A receptors by displacement of (^3 H)8-OH-DPAT; assay type: binding; set-up: rat cerebral cortices are used; from tissue; host or cells: rat cerebral cortex; conditions: for affinity for the 5-HT1A receptors (in words): in vitro; for pKi 5-HT1A: mean of at least 3 experiments, rat cerebral cortex, (^3 H)8-OH-DPAT; for 5-HT1A /D2 Selectivity: ratio of affinity constants (Ki) D2 /(Ki) 5-HT1A
T1 sequence (P19327 1-422): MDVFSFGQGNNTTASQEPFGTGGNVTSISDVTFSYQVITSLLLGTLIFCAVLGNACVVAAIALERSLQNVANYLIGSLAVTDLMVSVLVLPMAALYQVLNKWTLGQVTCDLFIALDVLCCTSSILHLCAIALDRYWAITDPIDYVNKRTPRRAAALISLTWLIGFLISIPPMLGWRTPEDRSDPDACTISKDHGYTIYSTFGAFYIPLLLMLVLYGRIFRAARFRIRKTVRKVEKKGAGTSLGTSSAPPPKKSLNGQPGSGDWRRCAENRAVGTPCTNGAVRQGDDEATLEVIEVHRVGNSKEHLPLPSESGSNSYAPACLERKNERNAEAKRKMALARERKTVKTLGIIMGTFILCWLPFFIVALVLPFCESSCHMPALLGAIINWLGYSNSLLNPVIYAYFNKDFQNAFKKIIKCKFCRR
Protocol: 1-Measurement of the affinity of the compounds of the invention for the 5-HT1A receptors
The study of binding to the 5-HT1A receptor was carried out as described by Sleight and Peroutka (Naunyn-Schmiedeberg's Arch. Pharmaco. 1991, 343, 106-16). For these experiments, rat cerebral cortices are used. After thawing the brain in 50 mmol Tris-HCl buffer, pH=7.40 at 25° C., the cerebral cortex is removed and homogenized in 20 volumes of buffer maintained at 4° C. The homogenate is centrifuged at 39,000 g for 10 minutes, the centrifugation pellet is suspended in the same volume of buffer and again centrifuged. After suspending again under the same conditions, the homogenate is incubated for 10 minutes at 37° C. and then centrifuged again. The final pellet is suspended in cold 50 mmol Tris-HCl reaction buffer, pH=7.40 at 25° C. containing 10 mmol of pargyline, 4 mmol of CaCl2 and 0.10% of ascorbic acid. The final concentration of tissue in the incubation medium is 10 mg/tube.
Nonspecific binding is defined using 10 mmol of 5-HT. The reaction tubes are incubated at 23° C. for 30 minutes and then their content is rapidly filtered under vacuum on Whatman GF/B filters, the tubes are rinsed twice with 5 ml of 50 mmol Tris-HCl buffer, pH=7.4 at 25° C. The radioactivity collected on the filter is analyzed by liquid scintillation by adding 4 ml of scintillation fluid (Emulsifier Safe, Packard). All the experiments are carried out in triplicate.
(§1) The inhibition constants (Ki) of the products of the invention are estimated from displacement experiments using the nonlinear regression program RADLIG version 4 from EBDA (Equilibrium Binding Data Analysis) (Biosoft, Cambridge, UK, McPherson, 1985). […] The pKi (-logKi) values are given in the form of the mean ±SEM of at least 3 experiments.

[2] = target: T1, 5-HT1A receptors; assay: In vivo 5-HT1A agonist activity: lower lip retraction (LLR) in rats after oral administration; set-up: Sprague Dawley male rats; from tissue; host or cells: whole animal, Sprague Dawley male rats (central nervous system); species or system rat (Sprague Dawley male); conditions: 1 h
Excerpt: 3-Evaluation of the agonist activity of the 5-HT1A receptors of the compounds of the invention in vivo
Sprague Dawley male rats (ICO: OFAD [IOPS], Iffa Credo, France) weighing 160-180 g on their arrival and 180-200 g at the beginning of the tests are used. The animals are quarantined for 4 to 8 days with free access to standard laboratory food before their use in the experiments. Animals are housed individually in plastic cages on a support, (28 cm×21 cm×18 cm) with a floor having a wire mesh covering (RC Iffa Credo), 24 hours before the tests. Water filtered on 0.22 μm is available ad libitum by means of an automatic dispenser. The quarantine area and the experimentation laboratory are air-conditioned (temperature: 22±1° C.; relative humidity: 55±5%) and illuminated from 07:00 to 19:00. All the rats are treated in accordance with laboratory animal ethics (Guide for the Care and Use of Laboratory Animals, U.S. Department of Agriculture. Public Health Service. National Institutes of Health publication No. 85-23, Revised 1985), and the protocol (No. 15) is carried out in accordance with the recommendations of the local ethics committee on animal research.
The methods used are essentially identical to those described previously (Drug. Dev. Res. 1992, 26, 21-48; Eur. J. Pharmacol. 1995, 281, 219-28).
The behavior of the animal is observed for a period of 10 minutes each, centred on t60 minutes, after administration by the oral route. Four animals are observed individually during the 10 minute period (from t55 to t65); the 4 rats are observed in turn, every 15 seconds, duration of observation 10 seconds per animal. During each of these observation periods, the presence (1) or absence (0) of lower lip retraction (LLR) in the animal is noted. […] This cycle is repeated 10 times over a period of 10 minutes; thus, the frequency of a behavior may vary from 0 to 10 for each observation period. Each day, two animals from each group receive the same dose of the same product.
The products are dissolved in distilled water or suspended in an aqueous solution of Tween 80 (2 drops/10 ml of distilled water). The products are administered in a volume of 10 ml/kg and the doses are expressed in basal weight. The order of administration of the products and of the doses is randomized.

[3] = target: T2, D2 dopaminergic receptors (Rattus norvegicus, UniProt P61169); assay: In vitro affinity for the D2 dopaminergic receptors by displacement of (^3 H) YM-09151-2; assay type: binding
T2 construct: rat striatum is used; from tissue; host or cells: rat striatum
T2 sequence (P61169 whole entry): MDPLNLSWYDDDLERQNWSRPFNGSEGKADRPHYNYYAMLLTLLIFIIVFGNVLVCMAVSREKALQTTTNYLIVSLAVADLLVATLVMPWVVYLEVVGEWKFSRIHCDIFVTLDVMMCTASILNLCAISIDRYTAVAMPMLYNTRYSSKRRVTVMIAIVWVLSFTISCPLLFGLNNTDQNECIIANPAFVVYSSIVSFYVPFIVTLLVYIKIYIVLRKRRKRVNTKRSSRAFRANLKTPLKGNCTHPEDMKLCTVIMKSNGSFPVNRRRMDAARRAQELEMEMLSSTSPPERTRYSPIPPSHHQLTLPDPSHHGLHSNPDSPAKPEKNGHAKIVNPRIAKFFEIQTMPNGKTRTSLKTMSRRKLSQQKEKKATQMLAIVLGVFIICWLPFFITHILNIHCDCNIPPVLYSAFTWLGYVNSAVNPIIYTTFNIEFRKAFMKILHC
Protocol: 2-Measurement of the affinity of the compounds of the invention for the D2 receptors
The in vitro affinity of the compounds of the invention for the D2 dopaminergic receptors was determined by measuring the displacement of (^3 H) YM-09151-2 (NET-1004 70-87 Ci/mmol). The study of binding to the D2 receptor is carried out as described by Niznik (Naunyn-Schmiedeberg's Arch. Pharmacol. Methods, 1985, 329, 333-38). For these experiments, rat striatum is used. After thawing the brain in 50 mmol Tris-HCl buffer, pH=7.40 at 25° C., the striatum is collected and homogenized in 40 volumes of buffer maintained at 4° C. The homogenate is centrifuged at 20,000 g for 10 minutes, the centrifugation pellet is suspended in the same volume of buffer and again centrifuged. The final pellet is suspended in cold 50 mmol Tris-HCl reaction buffer, pH=7.40 at 25° C. containing 120 mmol of NaCl and 5 mmol of KCl. The final concentration of tissue in the incubation medium is 2 mg/tube. The reaction tubes contain 0.20 ml of [^3 H]YM-09151-2 (0.05 mmol final), 0.20 ml of product to be tested 6-7 concentrations and 1.60 ml of tissue. Nonspecific binding is defined using 1 mmol of (+)-Butaclamol. The reaction tubes are incubated at 23° C. for 60 minutes and then their content is rapidly filtered under vacuum on Whatman GF/B filters, the tubes are rinsed twice with 5 ml of 50 mmol Tris-HCl buffer, pH=7.40 at 25° C. The radioactivity collected on the filter is analyzed by liquid scintillation by adding 4 ml of scintillation fluid (Emulsifier Safe, Packard). All the experiments are carried out in triplicate.
as §1

[4] = read-out: LLR p.o (60 minutes) ED50, oral, observed t55 to t65 minutes
[5] = mean of at least 3 experiments, rat striatum, (^3 H)YM-09151-2
[6] = mean of at least 3 experiments, rat striatum, (^3 H)YM-09151-2, read-out: pKi D2 (converted)
[7] = po, read-out: LLR p.o (60 minutes) ED50

Row | SMILES | ED50 [2, 4] [mg/kg] | pKi D2 [3, 5] | pKi 5-HT1A [1] | 5-HT1A /D2 Selectivity [1] | Ki [3, 6] [nM] | Ki ([1]; read-out: pKi 5-HT1A (converted)) [nM] | affinity for the 5-HT1A receptors (in words) [1] | ED50 [2, 7] [mg/kg] | Ki [3] [nM]
1 | O=C1CC2(CCCC2)CC(=O)N1CCCCN1CCN(c2ncccn2)CC1 [Buspirone, reference compound] | 20 |  |  |  |  |  | high affinity for the 5-HT1A receptors |  | 
2 | CNc1cccc(CNCC2(F)CCN(C(=O)c3ccc(Cl)c(Cl)c3)CC2)n1 [I-11] | 0.31 | 6.40 | 9.67 | 1862 |  |  |  |  | 
3 | CN(C)c1cccc(CNCC2(F)CCN(C(=O)c3ccc(Cl)c(Cl)c3)CC2)n1 [I-14, (3,4-dichlorophenyl)-(4-fluoro-4-{[(6-dimethylaminopyridin-2-yl-methyl)amino]methyl}piperidin-1-yl)-methanone] | 0.31 | 6.48 | 9.61 | 1349 |  |  |  |  | 
4 | CN(C)c1cccc(CNCC2(F)CCN(C(=O)c3ccc(F)c(Cl)c3)CC2)n1 [I-13, (3-chloro-4-fluoro-phenyl)-(4-fluoro-4-{[(6-dimethylaminopyridin-2-yl-methyl)amino]methyl}-piperidin-1-yl)methanone] | 0.31 | 6.56 | 9.92 | 2291 |  |  |  |  | 
5 | CCCN(CCC)C1CCc2cccc(O)c2C1 (stereo not shown) [8-OH-DPAT, 7-dipropylamino-5,6,7,8-tetrahydronaphthalen-1-ol, reference compound] |  | 6.26 |  |  |  |  | high affinity for the 5-HT1A receptors | 5 | 
6 | CNc1nc(CNCC2(F)CCN(C(=O)c3ccc(F)c(Cl)c3)CC2)ccc1C [I-55, (3-chloro-4-fluoro-phenyl)-(4-fluoro-4-{[(5-methyl-6-methylaminopyridin-2-ylmethyl)amino]-methyl}piperidin-1-yl)methanone] |  |  | 10.12 | 16982 |  |  |  | 0.08 | 1290

Further lines, with some results ahead:

Row | ED50 [2, 4] [mg/kg] | pKi D2 [3, 5] | pKi 5-HT1A [1] | 5-HT1A /D2 Selectivity [1] | Ki [3, 6] [nM] | Ki ([1]; read-out: pKi 5-HT1A (converted)) [nM] | SMILES | affinity for the 5-HT1A receptors (in words) [1] | ED50 [2, 7] [mg/kg] | Ki [3] [nM]
7 | 0.31 |  | 9.73 | 1259 | 234 |  | CCNc1cccc(CNCC2(F)CCN(C(=O)c3ccc(F)c(Cl)c3)CC2)n1 [I-58] |  |  | 
8 | 0.31 |  | 9.34 | 16594 | 7590 |  | O=C(c1ccc(F)c(Cl)c1)N1CCC(F)(CNCc2cccc(-c3cc[nH]n3)n2)CC1 [I-62] |  |  | 
9 | 0.08 |  | 9.50 | 1906 | 603 |  | Cc1ccc(CNCC2(F)CCN(C(=O)c3ccc(F)c(Cl)c3)CC2)nc1N(C)C [I-61, (3-chloro-4-fluoro-phenyl)-(4-fluoro-4-{[(5-methyl-6-dimethylaminopyridin-2-yl-methyl)amino]-methyl}piperidin-1-yl)methanone] |  |  | 
10 | 0.08 |  |  | 7414 | 1020 | 0.138 | O=C(c1ccc(F)c(Cl)c1)N1CCC(F)(CNCc2cccc(N3CCC3)n2)CC1 [I-56] |  |  | 
11 | 0.31 |  | 9.69 | 5011 | 1020 |  | CNc1cccc(CNCC2(F)CCN(C(=O)c3ccc(F)c(Cl)c3)CC2)n1 [I-59] |  |  | 
12 | 0.31 |  | 9.24 | > 10000 | > 10000 |  | Cc1ccc(CNCC2(F)CCN(C(=O)c3ccc(Cl)c(Cl)c3)CC2)nc1 [I-65] |  |  | 
13 | 0.31 | 5.65 | 9.55 | 7942 |  |  | O=C(c1ccc(F)c(Cl)c1)N1CCC(F)(CNCc2cccc(-c3ccco3)n2)CC1 [I-32, (3-chloro-4-fluorophenyl)-(4-fluoro-4-{[(6-furan-2-yl-pyridin-2-yl-methyl)amino]methyl}-piperidin-1-yl)methanone] |  |  | 
